In the supplement of paper PMC4862054:

Tests used:
Settings in all cases: incubation time: 72 h
BT-474 [1] = experiment: normalised response (% of control), CellTox Green; higher = less cell death (100 = DMSO, 0 = benzethonium chloride kill control)
How it was run: (§1)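 Normalised signals at single concentrations make up the values. They come from breast cancer cell lines seeded (20 µl suspension) into 384-well plates with compound at 5 concentrations in 10-fold steps over a compound-specific 10,000-fold range, incubated 72 h, and read for CellTox Green fluorescence then CellTiter-Glo luminescence. Each plate was normalised to 0.1 % DMSO (100) and a positive kill control (0).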

BT-549 [2] = experiment: as above
How it was run: as §1

CAL-120 [3] = experiment: as above
How it was run: as §1

CAL-148 [4] = experiment: as above
How it was run: as §1

CAL-51 [5] = experiment: as above
How it was run: as §1

CAL-85-1 [6] = experiment: as above
How it was run: as §1

DU-4475 [7] = experiment: as above
How it was run: as §1

HCC1143 [8] = experiment: as above
How it was run: as §1

HCC1599 [9] = experiment: as above
How it was run: as §1

Hs578T [10] = experiment: as above
How it was run: as §1

MCF-10A [11] = experiment: as above
How it was run: as §1

MDA-MB-231 [12] = experiment: as above
How it was run: as §1

MDA-MB-453 [13] = experiment: as above
How it was run: as §1

MDA-MB-468 [14] = experiment: as above
How it was run: as §1

MFM-223 [15] = experiment: as above
How it was run: as §1

BT-474 [16] = experiment: normalised response (% of control), CellTiter-Glo; higher = more viable cells (100 = DMSO, 0 = benzethonium chloride kill control)
How it was run: as §1

BT-549 [17] = experiment: as above
How it was run: as §1

CAL-120 [18] = experiment: as above
How it was run: as §1

CAL-148 [19] = experiment: as above
How it was run: as §1

CAL-51 [20] = experiment: as above
How it was run: as §1

CAL-85-1 [21] = experiment: as above
How it was run: as §1

DU-4475 [22] = experiment: as above
How it was run: as §1

HCC1143 [23] = experiment: as above
How it was run: as §1

HCC1599 [24] = experiment: as above
How it was run: as §1

HCC1937 = experiment: as above
How it was run: as §1

HDQ-P1 = experiment: as above
How it was run: as §1

Hs578T [25] = experiment: as above
How it was run: as §1

MCF-10A [26] = experiment: as above
How it was run: as §1

MDA-MB-231 [27] = experiment: as above
How it was run: as §1

MDA-MB-436 = experiment: as above
How it was run: as §1

MDA-MB-453 [28] = experiment: as above
How it was run: as §1

MDA-MB-468 [29] = experiment: as above
How it was run: as §1

MFM-223 [30] = experiment: as above
How it was run: as §1

SK-BR-3 = experiment: as above
How it was run: as §1

Structure (SMILES) | normalised response (BT-474 [1]) [%] | normalised response (BT-549 [2]) [%] | normalised response (CAL-120 [3]) [%] | normalised response (CAL-148 [4]) [%] | normalised response (CAL-51 [5]) [%] | normalised response (CAL-85-1 [6]) [%] | normalised response (DU-4475 [7]) [%] | normalised response (HCC1143 [8]) [%] | normalised response (HCC1599 [9]) [%] | normalised response (Hs578T [10]) [%] | normalised response (MCF-10A [11]) [%] | normalised response (MDA-MB-231 [12]) [%] | normalised response (MDA-MB-453 [13]) [%] | normalised response (MDA-MB-468 [14]) [%] | normalised response (MFM-223 [15]) [%] | normalised response (BT-474 [16]) [%] | normalised response (BT-549 [17]) [%] | normalised response (CAL-120 [18]) [%] | normalised response (CAL-148 [19]) [%] | normalised response (CAL-51 [20]) [%] | normalised response (CAL-85-1 [21]) [%] | normalised response (DU-4475 [22]) [%] | normalised response (HCC1143 [23]) [%] | normalised response (HCC1599 [24]) [%] | normalised response (HCC1937) [%] | normalised response (HDQ-P1) [%] | normalised response (Hs578T [25]) [%] | normalised response (MCF-10A [26]) [%] | normalised response (MDA-MB-231 [27]) [%] | normalised response (MDA-MB-436) [%] | normalised response (MDA-MB-453 [28]) [%] | normalised response (MDA-MB-468 [29]) [%] | normalised response (MFM-223 [30]) [%] | normalised response (SK-BR-3) [%]
Cc1ccc(NC(=O)c2ccc(CN3CCN(C)CC3)cc2)cc1Nc1nccc(-c2cccnc2)n1 [Imatinib] (1000 nM) | 98.8 | 121 | 106 | 101 | 103 | 110 | 101 | 113 | 104 | 104 | 101 | 107 | 103 | 137 | 105 | 102 | 106 | 108 | 103 | 96.3 | 104 | 105 | 99.2 | 101 | 93.6 | 101 | 105 | 111 | 106 | 102 | 111 | 99.9 | 104 | 105
CNNCc1ccc(C(=O)NC(C)C)cc1 [Procarbazine] (10 nM) |  |  |  |  |  |  |  |  |  |  |  |  |  |  |  | 97.9 | 100 | 102 | 108 | 66.9 | 99 | 107 | 105 | 91.3 | 107 | 109 | 101 | 103 | 106 | 97.2 | 95.8 | 113 | 104 | 109
CCCCCCCCc1ccc(CCC(N)(CO)CO)cc1 [Fingolimod] (1 nM) |  |  |  |  |  |  |  |  |  |  |  |  |  |  |  | 97.7 | 106 | 96.4 | 97.3 | 97.7 | 103 | 101 | 96.8 | 106 | 95.9 | 98.6 | 100 | 103 | 98 | 92.8 | 109 | 107 | 103 | 102
Cc1ccc(NC(=O)c2ccc(CN3CCN(C)CC3)cc2)cc1Nc1nccc(-c2cccnc2)n1 [Imatinib] (1 nM) |  |  |  |  |  |  |  |  |  |  |  |  |  |  |  | 99.2 | 102 | 101 | 114 | 74.7 | 102 | 107 | 100 | 101 | 94.5 | 102 | 103 | 101 | 105 | 89.9 | 119 | 102 | 108 | 107
Cn1cncc1[C@@](N)(c1ccc(Cl)cc1)c1ccc2c(c1)c(-c1cccc(Cl)c1)cc(=O)n2C [Tipifarnib] (1 nM) |  |  |  |  |  |  |  |  |  |  |  |  |  |  |  | 89.8 | 102 | 92.2 | 97.3 | 90.2 | 102 | 103 | 94.6 | 93.1 | 93.4 | 93.5 | 96.2 | 94.5 | 99.5 | 88 | 109 | 93.4 | 96.3 | 102
Cn1c(=O)n(-c2ccc(C(C)(C)C#N)cc2)c2c3cc(-c4cnc5ccccc5c4)ccc3ncc21 [Dactolisib] (0.1 nM) |  |  |  |  |  |  |  |  |  |  |  |  |  |  |  | 104 | 100 | 97.4 | 102 | 107 | 101 | 103 | 97.4 | 122 | 98.8 | 102 | 102 | 105 | 105 | 99.6 | 109 | 110 | 108 | 111
COc1ccc(-c2ccc3c(N4CCOC[C@@H]4C)nc(N4CCOC[C@@H]4C)nc3n2)cc1CO [AZD8055] (10 nM) |  |  |  |  |  |  |  |  |  |  |  |  |  |  |  | 84.8 | 77.9 | 81.1 | 82.5 | 92.8 | 85.4 | 92 | 86.8 | 98.3 | 84.2 | 74.6 | 92.2 | 87 | 88 | 76.5 | 79.3 | 80.1 | 77.8 | 53.5
CN(C)C[C@@H]1CCn2cc(c3ccccc32)C2=C(C(=O)NC2=O)c2cn(c3ccccc23)CCO1 [Ruboxistaurin] (10 nM) |  |  |  |  |  |  |  |  |  |  |  |  |  |  |  | 99.1 | 95.5 | 94.3 | 96.1 | 91.4 | 95.6 | 95.3 | 99.9 | 104 | 99.5 | 101 | 98.1 | 98.3 | 94 | 101 | 100 | 103 | 94.6 | 116
NS(=O)(=O)OC[C@@H]1C[C@@H](n2ccc3c(N[C@H]4CCc5ccccc54)ncnc32)C[C@@H]1O [Pevonedistat] (10 nM) |  |  |  |  |  |  |  |  |  |  |  |  |  |  |  | 114 | 94 | 97.8 | 109 | 77 | 100 | 109 | 102 | 97.1 | 99.1 | 95.9 | 103 | 112 | 107 | 96.6 | 100 | 97.2 | 102 | 93.5
CO[C@H]1C[C@@H]2CC[C@@H](C)[C@@](O)(O2)C(=O)C(=O)N2CCCC[C@H]2C(=O)O[C@H]([C@H](C)C[C@@H]2CC[C@@H](OCCO)[C@H](OC)C2)CC(=O)[C@H](C)/C=C(\C)[C@@H](O)[C@@H](OC)C(=O)[C@H](C)C[C@H](C)/C=C/C=C/C=C/1C [Everolimus] (0.01 nM) |  |  |  |  |  |  |  |  |  |  |  |  |  |  |  | 103 | 103 | 97.8 | 90.1 | 132 | 95.3 | 98.7 | 93 | 107 | 95.9 | 96.1 | 91.2 | 93.6 | 98.9 | 95.7 | 99.3 | 105 | 95.3 | 93.4
COc1ccc(-c2ccc3c(N4CCOC[C@@H]4C)nc(N4CCOC[C@@H]4C)nc3n2)cc1CO [AZD8055] (1 nM) |  |  |  |  |  |  |  |  |  |  |  |  |  |  |  | 90.8 | 98.2 | 90.3 | 89.3 | 116 | 93.5 | 95.5 | 86.8 | 108 | 91 | 95.2 | 93.7 | 85.7 | 95.2 | 89.3 | 104 | 90.5 | 86.8 | 87.1
COc1ccccc1S(=O)(=O)Nc1ccc2c(c1)CN(C)C(=O)N2 [PFI-1] (10 nM) |  |  |  |  |  |  |  |  |  |  |  |  |  |  |  | 99.7 | 90.1 | 91.8 | 108 | 102 | 94.6 | 109 | 102 | 88.6 | 94.5 | 96 | 106 | 103 | 103 | 97.1 | 97.2 | 95.3 | 109 | 88.4
Cc1ccc(NC(=O)c2ccc(CN3CCN(C)CC3)cc2)cc1Nc1nccc(-c2cccnc2)n1 [Imatinib] (10 nM) |  |  |  |  |  |  |  |  |  |  |  |  |  |  |  | 104 | 96.7 | 102 | 113 | 107 | 96 | 109 | 101 | 103 | 99.3 | 106 | 107 | 104 | 99.9 | 103 | 108 | 113 | 109 | 109
O=C(O)CCCc1ccc(N(CCCl)CCCl)cc1 [Chlorambucil] (1 nM) |  |  |  |  |  |  |  |  |  |  |  |  |  |  |  | 102 | 102 | 97.1 | 96.8 | 128 | 99.4 | 102 | 102 | 98.4 | 102 | 101 | 107 | 100 | 101 | 132 | 118 | 96.9 | 102 | 95.6
c1ccc([C@H]2CN3CCSC3=N2)cc1 [Levamisole] (10 nM) |  |  |  |  |  |  |  |  |  |  |  |  |  |  |  | 106 | 99 | 100 | 114 | 78.9 | 95.6 | 103 | 99.5 | 99.5 | 103 | 97 | 105 | 110 | 99.3 | 106 | 117 | 102 | 110 | 95.1
